Test results from ChEMBL document CHEMBL1132313, “32-Indolyl ether derivatives of ascomycin: three-dimensional structures of complexes with FK506-binding protein” (J Med Chem, 1999).

Key:
[1] = Inhibition of calcineurin phosphatase activity by the compound
[2] = Relative binding affinity of compound for FK-506 binding protein (FKBP)
T-cell = experiment: Compound was evaluated for inhibition of T-cell proliferation induced by PMA-ionomycin.; assay type: functional
[3] = Off-rate of FK-506 binding protein (FKBP) drug complex from their complexes with calcineurin.; assay type: ADME
[4] = Relative binding affinity of compound for FK506 binding protein (FKBP)

Row | IC50 [1] [nM] | IC50 [2] [nM] | Off-rate [3] [min] | IC50 [4] [nM] | SMILES | T-cell proliferation inhibition (T-cell) [nM]
1 | 2500 | 0.7 |  |  | CC[C@@H]1/C=C(/C)[C@@H](O)[C@@H](C)C[C@H](OC)[C@H]2O[C@@](O)(C(=O)C(=O)N3CCCC[C@H]3C(=O)O[C@H](/C(C)=C/[C@@H]3CC[C@@H](O)[C@H](OC)C3)[C@H](C)[C@@H](O)CC1=O)[C@H](C)C[C@@H]2OC | 
2 | 79 |  |  |  | CC[C@@H]1/C=C(/C)[C@@H](O)[C@H](C)C[C@H](OC)C2O[C@@](O)(C(=O)C(=O)N3CCCC[C@H]3C(=O)O[C@H](/C(C)=C/[C@@H]3CC[C@@H](Oc4ccc5c(ccn5C)c4)[C@H](OC)C3)[C@H](C)[C@@H](O)CC1=O)[C@H](C)C[C@@H]2OC | 5.1
3 | 8.21 | 27 |  |  | CC[C@@H]1/C=C(/C)C[C@H](C)C[C@H](OC)C2O[C@@](O)(C(=O)C(=O)N3CCCC[C@H]3C(=O)O[C@H](/C(C)=C/[C@@H]3CC[C@@H](Oc4ccc5c(ccn5CC)c4)[C@H](OC)C3)[C@H](C)[C@@H](O)CC1=O)[C@H](C)C[C@@H]2OC | 0.78
4 | 11.4 | 5.06 | 254 |  | CC[C@@H]1/C=C(/C)C[C@H](C)C[C@H](OC)C2O[C@@](O)(C(=O)C(=O)N3CCCC[C@H]3C(=O)O[C@H](/C(C)=C/[C@@H]3CC[C@@H](Oc4ccc5c(ccn5CCO)c4)[C@H](OC)C3)[C@H](C)[C@@H](O)CC1=O)[C@H](C)C[C@@H]2OC | 0.19
5 | 11.1 |  | 15.1 | 0.39 | C=CC[C@@H]1C=C(C)CC(C)C[C@H](OC)[C@H]2O[C@@](O)(C(=O)C(=O)N3CCCC[C@H]3C(=O)O[C@H](/C(C)=C/[C@@H]3CC[C@@H](O)[C@H](OC)C3)[C@H](C)[C@@H](O)CC1=O)[C@H](C)C[C@@H]2OC (single isomer, unassigned) [TACROLIMUS ANHYDROUS] | 0.3
